The series in a line: break through pressure or vacuum level after exhaustive drying of lock formulations in simulated silicone catheter tubing. The class given is physicochemical. Conditions: excipient at approximately 1% by weight. An excerpt:
FIG. 1 is a view of a sphygmomanometer 10 connected to a syringe 12. The sphygmomanometer 10 includes a gauge 14 with a visual display 16 to measure the pressure or vacuum level. The sphygmomanometer 10 and the syringe 12 were used to measure the break through pressure or vacuum level.
Long silicone rubber commercial catheter extension tubing segments spliced together, or a single small bore with a 1.5 mm inner diameter clear, and very soft laboratory silicone rubber tubing of about 15 inch in length were used for evaluation. Formulations of 30% weight per volume (w/v) ethanol and 4% weight per weight (w/w) tri-sodium citrate with candidate biocompatible excipients were prepared and charged into the lumens of simulated catheter tubings and capped with solid plugs. The samples were first dried near a de-humidifier for about 24 hours to allow evaporation of most ethanol before being placed into a clear polycarbonate drying column connected in series with a large Drierite® desiccant column. The columns were also fitted with a gas flow meter and a diaphragm gas pump to provide closed loop gas circulation at about 4 liter per minute (min-1). […] Both the pressure (+) or vacuum (−) levels to cause the liquid or solid plug movement were measured when subjected to actuation movements from a small air filled syringe 12 connected to a sphygmomanometer 10. […]

As to `OCC(O)CO` [glycerol], the “effectiveness of excipient in words” value was “conditionally acceptable” and the time free flowing entry is reported as “greater than 7 days”.

Source of the values: patent publication US10300176B2, “Catheter lock solution formulations” (Medline Industries, Inc., priority 2013, dated 2019).
